From ChEMBL document CHEMBL1158623, “In silico characterization of cytisinoids docked into an acetylcholine binding protein” (Bioorg Med Chem Lett, 2010) come the findings set out here.

In the test the target is Neuronal acetylcholine receptor; alpha4/beta2 (Rattus norvegicus, UniProt P09483+P12390). Nature of the test: Displacement of [3H]epibatidine from rat alpha4beta2 nAChR. The format is protein-complex assay. Background: In a radioligand displacement assay an active substance lowers the binding of a labelled ligand.
Neuronal acetylcholine receptor; alpha4/beta2, sequence (P09483 whole entry): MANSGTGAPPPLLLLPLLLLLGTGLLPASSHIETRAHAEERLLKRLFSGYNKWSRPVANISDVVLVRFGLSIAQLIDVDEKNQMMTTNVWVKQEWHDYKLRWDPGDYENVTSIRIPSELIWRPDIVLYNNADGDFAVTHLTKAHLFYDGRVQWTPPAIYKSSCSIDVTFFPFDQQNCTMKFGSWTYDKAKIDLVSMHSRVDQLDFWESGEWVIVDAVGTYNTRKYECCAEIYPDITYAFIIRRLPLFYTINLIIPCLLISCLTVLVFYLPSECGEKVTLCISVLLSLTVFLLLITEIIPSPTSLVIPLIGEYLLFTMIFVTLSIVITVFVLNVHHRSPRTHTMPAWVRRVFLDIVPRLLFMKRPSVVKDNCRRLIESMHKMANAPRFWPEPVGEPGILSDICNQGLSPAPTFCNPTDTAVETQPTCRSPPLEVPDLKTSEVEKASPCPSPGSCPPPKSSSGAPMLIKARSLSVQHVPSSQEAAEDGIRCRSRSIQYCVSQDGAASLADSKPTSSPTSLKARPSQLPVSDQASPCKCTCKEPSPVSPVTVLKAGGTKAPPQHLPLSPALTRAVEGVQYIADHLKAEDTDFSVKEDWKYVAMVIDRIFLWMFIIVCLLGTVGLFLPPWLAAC
Neuronal acetylcholine receptor; alpha4/beta2, sequence (P12390 whole entry): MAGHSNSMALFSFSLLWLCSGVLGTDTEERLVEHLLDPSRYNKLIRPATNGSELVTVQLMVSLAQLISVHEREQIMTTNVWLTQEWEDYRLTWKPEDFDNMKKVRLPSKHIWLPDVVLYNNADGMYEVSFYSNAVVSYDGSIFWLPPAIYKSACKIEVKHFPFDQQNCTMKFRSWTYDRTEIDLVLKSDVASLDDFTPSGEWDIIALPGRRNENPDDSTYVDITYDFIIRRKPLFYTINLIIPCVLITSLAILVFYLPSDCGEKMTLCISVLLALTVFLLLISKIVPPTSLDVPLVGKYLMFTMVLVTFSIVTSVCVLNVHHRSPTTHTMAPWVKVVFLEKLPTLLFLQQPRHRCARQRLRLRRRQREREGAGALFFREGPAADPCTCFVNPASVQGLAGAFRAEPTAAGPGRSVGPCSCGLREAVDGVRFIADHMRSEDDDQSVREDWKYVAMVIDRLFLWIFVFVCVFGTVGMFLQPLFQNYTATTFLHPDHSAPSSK

As a reminder, the IC50 is the concentration that gives 50% inhibition. As for `O=c1cccc2n1C[C@@H]1CNC[C@H]2C1` [CYTISINICLINE], the IC50 was 69.2 nM.
`O=c1c(Br)ccc2n1C[C@@H]1CNC[C@H]2C1` showed an IC50 of 0.309 nM.
In the case of `O=c1ccc(Br)c2n1C[C@@H]1CNC[C@H]2C1`, the IC50 was 457 nM. This IC50 lies about 1500-fold higher than the previous one.
Then `O=c1c(I)ccc2n1C[C@@H]1CNC[C@H]2C1`, with 0.245 nM; and `CN1C[C@@H]2C[C@H](C1)c1ccc(Br)c(=O)n1C2`, with 102 nM.
In the case of `O=c1c(Br)cc(Br)c2n1C[C@@H]1CNC[C@H]2C1`, the IC50 is 372 nM.
In the case of `CN1C[C@@H]2C[C@H](C1)c1cccc(=O)n1C2` it was 112 nM.
